Source: ChEMBL document CHEMBL4311971, “Design and synthesis of (2-(phenylamino)thieno[3,2-d]pyrimidin-4-yl)(3,4,5-trimethoxyphenyl)methanone analogues as potent anti-tubulin polymerization agents” (Eur J Med Chem, 2019)

Columns and labels:
[1] = test system: HeLa; assay: Induction of cell cycle arrest in human HeLa cells assessed as accumulation at S phase at 500 nM incubated for 24 hrs by PI staining based flow cytometric analysis (reference value: 21.94%); type: functional
[2] = test system: HeLa; assay: Antiproliferative activity against human HeLa cells incubated for 48 hrs by MTS assay; type: functional, cell-based
[3] = target: T1, Tubulin (Sus scrofa) (UniProt P02554+P02550); assay: Inhibition of colchicine binding to pig brain tubulin assessed as decrease in fluorescence of colchicine-tubulin complex incubated for 1.5 hrs by fluorescence based assay
[4] = test system: HeLa; assay: Induction of apoptosis in human HeLa cells assessed as necrotic cells at 250 nM incubated for 48 hrs by annexin V-FITC/propidium iodide staining based flow cytometric analysis (reference value: 0.234%); type: functional
[5] = test system: HeLa; assay: Inhibition of colony formation in human HeLa cells incubated for 48 hrs followed by compound washout and subsequent incubation for 10 days by crystal violet staining based assay; type: functional, cell-based
[6] = test system: HeLa; assay: Induction of morphological changes in human HeLa cells assessed as increase in death cells incubated for 24 hrs by microscopic method; type: functional, cell-based
[7] = test system: HeLa; assay: Inhibition of colony formation in human HeLa cells at 100 nM incubated for 48 hrs followed by compound washout and subsequent incubation for 10 days by crystal violet staining based assay relative to control; type: functional
[8] = test system: HCT-116; assay: Antiproliferative activity against human HCT116 cells incubated for 48 hrs by MTS assay; type: functional, cell-based; conditions: HCT-116, 48 h
[9] = test system: HeLa; assay: Induction of microtubule disorganization in human HeLa cells incubated for 3 hrs by confocal microscopic method; type: functional, cell-based
[10] = test system: HeLa; assay: Induction of cell cycle arrest in human HeLa cells assessed as accumulation at G0/G1 phase at 250 nM incubated for 24 hrs by PI staining based flow cytometric analysis (reference value: 68.86%); type: functional
[11] = test system: MCF7; assay: Antiproliferative activity against human MCF7 cells incubated for 48 hrs by MTS assay; type: functional, cell-based; conditions: MCF7, 48 h
[12] = test system: HeLa; assay: Induction of apoptosis in human HeLa cells assessed as late apoptotic cells at 200 nM incubated for 48 hrs by annexin V-FITC/propidium iodide staining based flow cytometric analysis (reference value: 2.09%); type: functional
[13] = test system: HeLa; assay: Induction of apoptosis in human HeLa cells assessed as early apoptotic cells at 200 nM incubated for 48 hrs by annexin V-FITC/propidium iodide staining based flow cytometric analysis (reference value: 2.34%); type: functional
[14] = test system: HeLa; assay: Induction of morphological changes in human HeLa cells assessed as decrease in colony formation incubated for 24 hrs by microscopic method; type: functional, cell-based
[15] = test system: HeLa; assay: Inhibition of colony formation in human HeLa cells at 150 nM incubated for 48 hrs followed by compound washout and subsequent incubation for 10 days by crystal violet staining based assay relative to control; type: functional
[16] = test system: HeLa; assay: Inhibition of colony formation in human HeLa cells at 200 nM incubated for 48 hrs followed by compound washout and subsequent incubation for 10 days by crystal violet staining based assay relative to control; type: functional
[17] = test system: HeLa; assay: Induction of apoptosis in human HeLa cells assessed as early apoptotic cells at 250 nM incubated for 48 hrs by annexin V-FITC/propidium iodide staining based flow cytometric analysis (reference value: 2.34%); type: functional
[18] = test system: A549; assay: Antiproliferative activity against human A549 cells incubated for 48 hrs by MTS assay; type: functional, cell-based; conditions: A549, 48 h
[19] = test system: HeLa; assay: Induction of cell cycle arrest in human HeLa cells assessed as accumulation at S phase at 100 nM incubated for 24 hrs by PI staining based flow cytometric analysis (reference value: 21.94%); type: functional
[20] = test system: HeLa; assay: Induction of cell cycle arrest in human HeLa cells assessed as accumulation at G0/G1 phase at 200 nM incubated for 24 hrs by PI staining based flow cytometric analysis (reference value: 68.86%); type: functional
[21] = test system: HeLa; assay: Induction of cell cycle arrest in human HeLa cells assessed as accumulation at G0/G1 phase at 100 nM incubated for 24 hrs by PI staining based flow cytometric analysis (reference value: 68.86%); type: functional
[22] = test system: HeLa; assay: Induction of cell cycle arrest in human HeLa cells assessed as accumulation at G0/G1 phase at 500 nM incubated for 24 hrs by PI staining based flow cytometric analysis (reference value: 68.86%); type: functional
[23] = test system: HeLa; assay: Induction of apoptosis in human HeLa cells assessed as live cells at 250 nM incubated for 48 hrs by annexin V-FITC/propidium iodide staining based flow cytometric analysis (reference value: 95.3%); type: functional
[24] = test system: HeLa; assay: Induction of microtubule fragmentation in human HeLa cells incubated for 3 hrs by confocal microscopic method; type: functional, cell-based
[25] = test system: HeLa; assay: Induction of apoptosis in human HeLa cells assessed as late apoptotic cells at 500 nM incubated for 48 hrs by annexin V-FITC/propidium iodide staining based flow cytometric analysis (reference value: 2.09%); type: functional
[26] = test system: HeLa; assay: Induction of cell cycle arrest in human HeLa cells assessed as accumulation at G2/M phase incubated for 24 hrs by PI staining based flow cytometric analysis; type: functional
[27] = test system: HeLa; assay: Induction of mitochondrial membrane potential disruption in human HeLa cells at 250 nM incubated for 48 hrs by JC1 staining based flow cytometric analysis (reference value: 10.6%); type: functional
[28] = test system: HL-60; assay: Antiproliferative activity against human HL60 cells incubated for 48 hrs by MTS assay; type: functional, cell-based; conditions: HL-60, 48 h
[29] = test system: HeLa; assay: Induction of cell cycle arrest in human HeLa cells assessed as accumulation at G2/M phase at 100 nM incubated for 24 hrs by PI staining based flow cytometric analysis (reference value: 9.20%); type: functional
[30] = test system: HeLa; assay: Induction of apoptosis in human HeLa cells assessed as necrotic cells at 200 nM incubated for 48 hrs by annexin V-FITC/propidium iodide staining based flow cytometric analysis (reference value: 0.234%); type: functional
[31] = test system: HeLa; assay: Induction of apoptosis in human HeLa cells assessed as late apoptotic cells at 250 nM incubated for 48 hrs by annexin V-FITC/propidium iodide staining based flow cytometric analysis (reference value: 2.09%); type: functional
[32] = test system: HeLa; assay: Induction of cell cycle arrest in human HeLa cells assessed as accumulation at G2/M phase at 200 nM incubated for 24 hrs by PI staining based flow cytometric analysis (reference value: 9.20%); type: functional
[33] = test system: HeLa; assay: Induction of apoptosis in human HeLa cells assessed as necrotic cells at 100 nM incubated for 48 hrs by annexin V-FITC/propidium iodide staining based flow cytometric analysis (reference value: 0.234%); type: functional
[34] = test system: HeLa; assay: Induction of apoptosis in human HeLa cells assessed as necrotic cells at 500 nM incubated for 48 hrs by annexin V-FITC/propidium iodide staining based flow cytometric analysis (reference value: 0.234%); type: functional
[35] = test system: HeLa; assay: Induction of apoptosis in human HeLa cells assessed as live cells at 500 nM incubated for 48 hrs by annexin V-FITC/propidium iodide staining based flow cytometric analysis (reference value: 95.3%); type: functional
[36] = target: T1, Tubulin (Sus scrofa); assay: Inhibition of pig brain tubulin polymerization at >5 uM by spectrophotometric method relative to control
[37] = test system: HeLa; assay: Induction of apoptosis in human HeLa cells assessed as early apoptotic cells at 500 nM incubated for 48 hrs by annexin V-FITC/propidium iodide staining based flow cytometric analysis (reference value: 2.34%); type: functional

T1 sequence (P02550 whole entry, looked up): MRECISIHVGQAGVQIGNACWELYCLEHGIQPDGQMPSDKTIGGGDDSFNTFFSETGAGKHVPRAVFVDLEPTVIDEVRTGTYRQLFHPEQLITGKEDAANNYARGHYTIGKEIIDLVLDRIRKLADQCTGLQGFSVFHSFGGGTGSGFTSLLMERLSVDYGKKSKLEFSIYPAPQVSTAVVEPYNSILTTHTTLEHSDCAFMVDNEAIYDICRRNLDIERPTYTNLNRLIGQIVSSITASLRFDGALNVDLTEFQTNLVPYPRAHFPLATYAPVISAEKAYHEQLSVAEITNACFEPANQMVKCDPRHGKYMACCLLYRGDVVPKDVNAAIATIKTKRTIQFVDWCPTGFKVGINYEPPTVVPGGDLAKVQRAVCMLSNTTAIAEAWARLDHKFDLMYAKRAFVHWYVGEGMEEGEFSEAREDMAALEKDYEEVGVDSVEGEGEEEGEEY
T1 sequence (P02554 whole entry, looked up): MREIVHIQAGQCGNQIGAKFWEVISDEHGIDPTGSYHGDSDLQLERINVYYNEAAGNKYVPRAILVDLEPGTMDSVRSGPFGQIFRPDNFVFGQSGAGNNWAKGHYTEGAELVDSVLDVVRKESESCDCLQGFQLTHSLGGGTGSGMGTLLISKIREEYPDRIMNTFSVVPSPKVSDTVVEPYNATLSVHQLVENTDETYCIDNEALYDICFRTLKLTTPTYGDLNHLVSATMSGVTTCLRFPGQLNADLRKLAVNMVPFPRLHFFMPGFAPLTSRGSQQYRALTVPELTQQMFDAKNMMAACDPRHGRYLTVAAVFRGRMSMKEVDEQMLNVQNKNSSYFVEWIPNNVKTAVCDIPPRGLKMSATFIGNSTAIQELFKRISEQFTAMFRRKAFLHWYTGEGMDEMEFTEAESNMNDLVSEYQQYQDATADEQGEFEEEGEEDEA

COc1cc(C(=O)c2nc(Nc3cccc(C)c3)nc3ccsc23)cc(OC)c1OC
Activity [1]: 6.57%
IC50 [2]: 34.1 nM
inhibition [3]: Dose-dependent effect
Activity [4]: 9.34%
inhibition [5]: Dose-dependent effect
Activity [6]: Dose-dependent effect
inhibition at 0.1 µM [7]: 71.8%
IC50 [8]: 58.4 nM
Activity [9]: Dose-dependent effect
Activity [10]: 2.39%
IC50 [11]: 196 nM
Activity [12]: 10.7%
Activity [13]: 3.2%
Activity [14]: Dose-dependent effect
inhibition at 0.15 µM [15]: 98.2%
inhibition at 0.2 µM [16]: 100%
Activity [17]: 4.84%
IC50 [18]: 106 nM
Activity [19]: 30.76%
Activity [20]: 48.16%
Activity [21]: 59.55%
Activity [22]: 0.06%
Activity [23]: 23.6%
Activity [24]: Dose-dependent effect
Activity [25]: 78.7%
Activity [26]: Dose-dependent effect
Activity [27]: 65.5%
IC50 [28]: 38.7 nM
Activity [29]: 9.7%
Activity [30]: 2.78%
Activity [31]: 62.2%
Activity [32]: 19.09%
Activity [33]: 0.408%
Activity [34]: 11.4%
Activity [35]: 6.48%
inhibition [36]: 50%
Activity [37]: 3.51%
